The experiment deals with T1, 17β-HSD (Homo sapiens, UniProt P14061).
T1 sequence (P14061 1-328): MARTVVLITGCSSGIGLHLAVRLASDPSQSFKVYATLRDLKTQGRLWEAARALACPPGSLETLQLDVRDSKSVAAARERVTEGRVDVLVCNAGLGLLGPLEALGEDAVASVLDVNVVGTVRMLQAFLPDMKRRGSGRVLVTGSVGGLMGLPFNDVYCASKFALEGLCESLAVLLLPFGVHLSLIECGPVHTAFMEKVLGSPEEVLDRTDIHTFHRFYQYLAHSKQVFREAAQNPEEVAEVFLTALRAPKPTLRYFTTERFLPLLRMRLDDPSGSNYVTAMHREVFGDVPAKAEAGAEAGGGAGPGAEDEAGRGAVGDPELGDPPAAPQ
In words: Time-dependent inactivation of 17β-HSD (NADH production at 340 nm with estradiol and NAD+). The format is biochemical. The protocol: The compounds of the invention prepared as described above were tested for their ability to affect the reaction catalyzed by 17β-HSD, as follows.
Approximately 5 μl of a 2-20 mM solution of the test compound in absolute alcohol was added to the incubation mixture, which contained:
200 μM NAD^+ (100 μl of 2 mM stock);
795 μl 100 mM sodium carbonate buffer (pH 9.2, containing 20% glycerol) or 795 μl phosphate buffer (pH 7.4, 20% glycerol);
90 μg of enzyme (supplied as 100 μl of 0.9 μg/μl stock).
Aliquots were removed at intervals and added to 950 μl of assay cocktail, which contained:
100 mM sodium carbonate buffer;
60 μM estradiol in propylene glycol stock;
0.8% human serum albumin.
The activity remaining in the incubation mixture was assessed by NADH production in the assay cocktail monitored by adsorption at 340 nm every 15 sec for 2 min with an automated spectrophotometer.
All aqueous stock solutions were prepared in 100 mM sodium carbonate buffer, 20% glycerol, to maintain enzyme stability. Where additional components were added, such as glutathione, volumes were adjusted accordingly. To assess loss of enzyme activity independent of the test compound, 5 μl ethanol was added in place of steroid stock solution to the assay cocktail.
When aliquots were withdrawn less than 3 min apart, the aliquot was quenched in 900 μl assay buffer without NAD^+ and supplemented with 5 mM glutathione: after all aliquots were withdrawn, samples were assayed by adding NAD^+ (50 μl of a 4 mM stock) and monitored as above.
Compounds of the invention were evaluated in terms of Km, Vmax, and Rp.

`C#CC(O)C1(C)CCC2c3ccc(O)cc3CCC2C1` (stereo not drawn) [--CH(OH)C.ident.CH, [2S-[2α(S*),4aα,10aβ]]-α-Ethynyl-1,2,3,4,4a,9,10,10a-octahydro-7-hydroxy-2-methyl-2-phenanthrenemethanol]: the “effect of glutathione on inactivation of the enzyme” value (5 mM glutathione) is 5 mM glutathione protects the enzyme from inactivation.
For `C#CC(=O)[C@@]1(C)CC[C@@H]2c3ccc(O)cc3CC[C@H]2C1` [--COC.ident.CH, [2S-(2α,4aα,10aβ)]-1-(1,2,3,4,4a,9,10,10a-Octahydro-7-hydroxy-2-methyl-2-phenanthrenyl)-2-propyn-1-one], the “substrate for the enzyme” value (presence of NAD+) was “not a substrate for the enzyme in the presence of NAD^+”. For the same molecule, the “effect of NADH on inactivation of the enzyme” value (presence of NADH) was “inactivation of the enzyme is inhibited by the presence of NADH”.

(Values after patent US4874891A, “Open "D" ring hormone analogs” (Washington University, priority 1986, dated 1989).)
